Reference: PubChem BioAssay (NCI)
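1) Cells in 96-well plates. 2) Compound, 48 h, 5 concentrations. 3) Linear interpolation between surrounding doses. 4) Unreached endpoint = highest concentration. GI50: concentration for 50% inhibition of growth. TGI marks complete inhibition of growth.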

Legend:
Experiment in all cases: NCI-60 cell line screen, 48 h
[1] = tested on: 786-0 renal
[2] = tested on: A498 renal
[3] = tested on: A549 NSCLC
[4] = tested on: ACHN renal
[5] = tested on: BT-549 breast
[6] = tested on: CAKI-1 renal
[7] = tested on: CCRF-CEM leukemia
[8] = tested on: COLO 205 colon
[9] = tested on: DU-145 prostate
[10] = tested on: EKVX NSCLC
[11] = tested on: HCC-2998 colon
[12] = tested on: HCT-116 colon
[13] = tested on: HCT-15 colon
[14] = tested on: HL-60(TB) leukemia
[15] = tested on: HOP-62 NSCLC
[16] = tested on: HOP-92 NSCLC
[17] = tested on: HS 578T breast
[18] = tested on: HT29 colon
[19] = tested on: IGROV1 ovarian
[20] = tested on: K-562 leukemia
[21] = tested on: KM12 colon
[22] = tested on: LOX IMVI melanoma
[23] = tested on: M14 melanoma
[24] = tested on: MALME-3M melanoma
[25] = tested on: MCF7 breast
[26] = tested on: MDA-MB-231 breast
[27] = tested on: MDA-MB-435
[28] = tested on: MDA-MB-468 breast
[29] = tested on: MOLT-4 leukemia
[30] = tested on: NCI-H226 lung
[31] = tested on: NCI-H23 lung
[32] = tested on: NCI-H460 lung
[33] = tested on: NCI-H522 lung
[34] = tested on: NCI/ADR-RES ovarian
[35] = tested on: OVCAR-3 ovarian
[36] = tested on: OVCAR-4 ovarian
[37] = tested on: OVCAR-5 ovarian
[38] = tested on: OVCAR-8 ovarian
[39] = tested on: PC-3 prostate
[40] = tested on: RPMI-8226 leukemia
[41] = tested on: RXF 393 renal
[42] = tested on: SF-268 CNS
[43] = tested on: SF-295 CNS
[44] = tested on: SF-539 CNS
[45] = tested on: SK-MEL-2 melanoma
[46] = tested on: SK-MEL-28 melanoma
[47] = tested on: SK-MEL-5 melanoma
[48] = tested on: SK-OV-3 ovarian
[49] = tested on: SN12C renal
[50] = tested on: SNB-19 CNS
[51] = tested on: SNB-75 CNS
[52] = tested on: SR leukemia
[53] = tested on: SW-620 colon
[54] = tested on: T-47D breast
[55] = tested on: TK-10 renal
[56] = tested on: U251 CNS
[57] = tested on: UACC-257 melanoma
[58] = tested on: UACC-62 melanoma
[59] = tested on: UO-31 renal

## CC(C)(C)c1cc(/C=C2\S/C(=N/c3ncn[nH]3)NC2=O)cc(C(C)(C)C)c1O
[1]
  GI50: 2.95 µM
  TGI: 13.3 µM
[2]
  GI50: 1.77 µM
  TGI: 10.5 µM
[3]
  GI50: 1.12 µM
  TGI: 13.8 µM
[4]
  GI50: 0.691 µM
  TGI: 12.6 µM
[5]
  GI50: 2.31 µM
  TGI: 11.8 µM
[6]
  GI50: 1.37 µM
  TGI: 16.7 µM
[7]
  GI50: 0.706 µM
  TGI: 6.5 µM
[8]
  GI50: 1.99 µM
  TGI: 12.8 µM
[9]
  GI50: 2.53 µM
  TGI: 21.5 µM
[10]
  GI50: 2.15 µM
  TGI: 12.1 µM
[11]
  GI50: 3.23 µM
  TGI: 16.9 µM
[12]
  GI50: 0.978 µM
  TGI: 11.1 µM
[13]
  GI50: 0.455 µM
  TGI: 12.8 µM
[14]
  GI50: 2.73 µM
  TGI: 18 µM
[15]
  GI50: 0.999 µM
  TGI: 18.7 µM
[16]
  GI50: 1.72 µM
  TGI: 13.4 µM
[17]
  GI50: 2.37 µM
  TGI: 8.47 µM
[18]
  GI50: 3.03 µM
  TGI: 19.4 µM
[19]
  GI50: 2.04 µM
  TGI: 14.7 µM
[20]
  GI50: 1.44 µM
  TGI: 54.3 µM
[21]
  GI50: 3.79 µM
  TGI: 17 µM
[22]
  GI50: 0.71 µM
  TGI: 12.7 µM
[23]
  GI50: 1.98 µM
  TGI: 16.3 µM
[24]
  GI50: 3.74 µM
  TGI: 18.9 µM
[25]
  GI50: 1.83 µM
  TGI: 13 µM
[26]
  GI50: 2.91 µM
  TGI: 14.8 µM
[27]
  GI50: 2.77 µM
  TGI: 14.9 µM
[28]
  GI50: 2.75 µM
  TGI: 15.5 µM
[29]
  GI50: 1.16 µM
  TGI: 13.7 µM
[30]
  GI50: 1.8 µM
  TGI: 14.3 µM
[31]
  GI50: 2.45 µM
  TGI: 17.3 µM
[32]
  GI50: 0.402 µM
  TGI: 10.1 µM
[33]
  GI50: 3.78 µM
  TGI: 17.9 µM
[34]
  GI50: 0.472 µM
  TGI: 14.4 µM
[35]
  GI50: 2.4 µM
  TGI: 15.2 µM
[36]
  GI50: 2.31 µM
  TGI: 16.3 µM
[37]
  GI50: 4.52 µM
  TGI: 17.7 µM
[38]
  GI50: 1.76 µM
  TGI: 14.3 µM
[39]
  GI50: 0.762 µM
  TGI: 22.1 µM
[40]
  GI50: 2.6 µM
  TGI: 33.8 µM
[41]
  GI50: 2.03 µM
  TGI: 8.35 µM
[42]
  GI50: 2.61 µM
  TGI: 16.6 µM
[43]
  GI50: 0.593 µM
  TGI: 12.7 µM
[44]
  GI50: 2.89 µM
  TGI: 12.6 µM
[45]
  GI50: 2.63 µM
  TGI: 15.9 µM
[46]
  GI50: 2.93 µM
  TGI: 14.4 µM
[47]
  GI50: 1.36 µM
  TGI: 9.78 µM
[48]
  GI50: 4.83 µM
  TGI: 20.5 µM
[49]
  GI50: 2.08 µM
  TGI: 13.3 µM
[50]
  GI50: 1.5 µM
  TGI: 12.9 µM
[51]
  GI50: 2.34 µM
  TGI: 13.6 µM
[52]
  GI50: 0.935 µM
  TGI: 29.8 µM
[53]
  GI50: 2.13 µM
  TGI: 13.7 µM
[54]
  GI50: 2.29 µM
  TGI: 44.4 µM
[55]
  GI50: 4.82 µM
  TGI: 20.2 µM
[56]
  GI50: 0.801 µM
  TGI: 7.9 µM
[57]
  GI50: 3.85 µM
  TGI: 16.7 µM
[58]
  GI50: 2.28 µM
  TGI: 11.8 µM
[59]
  GI50: 0.882 µM
  TGI: 12.3 µM
